In ChEMBL document CHEMBL1201862, “PubChem BioAssay data set” (2004):
Activity calls are given as the source filed them.

Experiments:
[1] = system: HeLa; experiment: HeLa cell cytotoxicity, dose response, cytotoxicity control, ATP luminescence, cherry-pick samples (AID 687004); format: functional, cell-based; settings: Homo sapiens
[2] = target: T1, Fatty acid synthase (Homo sapiens, UniProt P49327); experiment: FAS thioesterase domain inhibitors, dose response, biochemical, endpoint fluorescence intensity, uHTS hits (AID 624327); format: functional;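 also: fluorescence from hydrolysis of an O-methyl fluorescein acyl ester substrate by the enzyme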
[3] = HepG2 cell cytotoxicity, dose response, cytotoxicity control for Shn3 inhibitor project, CellTiter-Glo, cherry-picked (AID 624134); format: functional, cell-based
[4] = target: T1, Fatty acid synthase; experiment: FAS thioesterase domain inhibitors, dose response, biochemical, kinetic fluorescence intensity (AID 624326); format: functional;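 also: rate of fluorescence rise from hydrolysis of a fluorogenic O-methyl fluorescein ester substrate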
[5] = system: Streptococcus; experiment: Group A Streptococcus viability loss, dose response, counter-screen for streptokinase expression inhibitor project, luminescence, BacTiterGlo (AID 1915); format: functional, organism-based;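 also: potency for reduction of bacterial viability or growth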
[6] = control 3'UTR Renilla luciferase suppression, dose response, counter-screen for Shn3 inhibitor project, cell-based, Clone20-Shn3RL, cherry-picked (AID 624133); format: functional
[7] = target: T2, Streptokinase A (Streptococcus pyogenes serotype M1, UniProt P10520); experiment: S. pyogenes streptokinase expression inhibitors, potency, dose response, plasminogen activation absorbance, OD405 (AID 1914); format: functional, Streptococcus pyogenes M1 GAS;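 also: secreted streptokinase activity via plasminogen activation per viability signal from cell pellet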
T2 sequence (P10520 whole entry): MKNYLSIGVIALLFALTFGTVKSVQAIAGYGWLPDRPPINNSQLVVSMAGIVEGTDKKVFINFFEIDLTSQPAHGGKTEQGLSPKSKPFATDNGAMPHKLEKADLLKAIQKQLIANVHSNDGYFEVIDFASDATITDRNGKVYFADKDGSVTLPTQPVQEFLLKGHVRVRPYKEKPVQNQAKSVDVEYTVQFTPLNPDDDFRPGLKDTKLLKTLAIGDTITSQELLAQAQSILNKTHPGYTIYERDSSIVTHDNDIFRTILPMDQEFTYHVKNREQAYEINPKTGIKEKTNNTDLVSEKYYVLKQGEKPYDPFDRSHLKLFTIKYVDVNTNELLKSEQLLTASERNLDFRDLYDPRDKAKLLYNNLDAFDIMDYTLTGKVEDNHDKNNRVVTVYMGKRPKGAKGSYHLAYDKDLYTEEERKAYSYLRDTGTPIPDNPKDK

[8] = non-specific cell cytotoxicity, dose response, cytotoxicity control for PAX8 inhibitor project, plate reader, dry powder samples (AID 743021); format: functional, cell-based
[9] = Shn3 3'UTR reporter inhibitors, dose response, cell-based, Clone20 osteoblasts, firefly luciferase, cherry-picked (AID 624132); format: functional;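 also: firefly luciferase luminescence from reporter carrying the Shn3 3'UTR in osteoblasts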
[10] = target: Paired box protein Pax-8 (Homo sapiens, UniProt Q06710); experiment: inhibitors of PAX8-driven TPO luciferase reporter, dose response, RMG-I cells, cherry-pick (AID 687027); format: functional, cell-based;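 also: luciferase reporter driven by Pax8 target thyroperoxidase promoter measured by SteadyGlo luminescence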
[11] = system: Streptococcus sp. 'group A'; experiment: growth inhibition of control SK(-) GAS strain, dose response, counter-screen for streptokinase expression inhibitor project, luminescence, kanamycin, BacTiterGlo, confirmation (AID 1900); format: functional, organism-based
[12] = system: BHK-21; experiment: BHK-21 cell toxicity, dose response, cytotoxicity control, plate reader, cherry-pick samples (AID 687030); format: functional, cell-based; settings: Mesocricetus auratus
[13] = target: T3, Beta-lactamase (Pseudomonas aeruginosa, UniProt Q79MP6); experiment: […] counterscreen for selective VIM-2 inhibitors: dose response biochemical high throughput screening assay to identify inhibitors of IMP-1 metallo-beta-lactamase.
[14] = target: Beta-lactamase (Salmonella choleraesuis (strain SC-B67), UniProt Q5J463); experiment: Epi-absorbance-based counterscreen for selective VIM-2 inhibitors: dose response biochemical high throughput screening assay to identify inhibitors of TEM-1 serine-beta-lactamase.
[15] = target: T3, Beta-lactamase; experiment: IMP-1 metallo-beta-lactamase inhibitors, dose response, selectivity assay for VIM-2 inhibitor project, biochemical, epi-absorbance (AID 1920)
[16] = target: Albumin (Bos taurus, UniProt P02769); experiment: Counterscreen for inhibitors of T-cell receptor (TCR)-CD3 interaction: Fluorescence-based biochemical high throughput dose response assay to identify inhibitors of T-cell receptor (TCR)-CD3 interaction using a TAMRA-labeled BSA probe.; format: functional
[17] = target: Tyrosine-protein phosphatase non-receptor type 5 (Homo sapiens, UniProt P54829); experiment: STEP phosphatase inhibitors, confirmation, biochemical, fluorescence intensity, uHTS hits (AID 602372); format: functional; settings: read-out: IC50_Mean
[18] = target: Dual specificity protein phosphatase 3 (Homo sapiens, UniProt P51452); experiment: VHR phosphatase inhibition, dose response, selectivity assay for STEP inhibitor project, biochemical (AID 602374); format: functional; settings: read-out: IC50_Mean
[19] = target: Eukaryotic translation initiation factor 4E (Mus musculus, UniProt P63073); experiment: eIF4E–eIF4G protein interaction inhibitors, dose response, biochemical, TR-FRET (AID 855); format: functional;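 also: potency for disrupting eIF4E binding to eIF4GI seen as loss of FRET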
[20] = target: T4, Tyrosine-protein phosphatase non-receptor type 22 (Homo sapiens, UniProt Q9Y2R2); experiment: PTPN22 phosphatase inhibition, dose response, selectivity assay for STEP inhibitor project, biochemical (AID 624241); format: functional
T4 sequence (Q9Y2R2 whole entry): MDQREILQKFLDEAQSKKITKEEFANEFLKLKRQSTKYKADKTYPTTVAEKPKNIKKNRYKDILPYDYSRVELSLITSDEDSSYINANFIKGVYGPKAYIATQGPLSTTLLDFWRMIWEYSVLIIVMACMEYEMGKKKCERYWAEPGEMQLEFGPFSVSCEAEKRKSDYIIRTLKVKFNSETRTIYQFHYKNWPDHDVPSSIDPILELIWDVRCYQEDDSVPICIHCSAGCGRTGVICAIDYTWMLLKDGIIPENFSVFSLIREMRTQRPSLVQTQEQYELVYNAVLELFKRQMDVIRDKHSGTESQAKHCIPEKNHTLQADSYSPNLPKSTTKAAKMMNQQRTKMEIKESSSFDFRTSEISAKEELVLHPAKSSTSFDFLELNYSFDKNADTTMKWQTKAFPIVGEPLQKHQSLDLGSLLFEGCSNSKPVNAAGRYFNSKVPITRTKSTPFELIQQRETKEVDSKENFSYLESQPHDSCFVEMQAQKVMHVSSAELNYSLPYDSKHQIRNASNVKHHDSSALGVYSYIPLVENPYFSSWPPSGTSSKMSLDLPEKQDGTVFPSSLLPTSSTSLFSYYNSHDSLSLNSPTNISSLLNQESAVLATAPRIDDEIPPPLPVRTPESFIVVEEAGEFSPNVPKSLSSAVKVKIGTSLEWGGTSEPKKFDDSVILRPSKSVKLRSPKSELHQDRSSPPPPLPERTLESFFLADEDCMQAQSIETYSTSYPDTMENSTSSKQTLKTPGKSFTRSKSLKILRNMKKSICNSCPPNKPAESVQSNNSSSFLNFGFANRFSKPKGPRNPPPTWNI

[21] = target: Tyrosine-protein phosphatase non-receptor type 11 (Homo sapiens, UniProt Q06124); experiment: SHP2 phosphatase inhibition, dose response, selectivity assay for STEP inhibitor project, biochemical (AID 602367); format: functional; settings: read-out: IC50_Mean
[22] = target: T5, Carboxy-terminal domain RNA polymerase II polypeptide A small phosphatase 1 (Homo sapiens, UniProt Q9GZU7); experiment: inhibitors of CTDSP1, concentration-response testing, biochemical assay, absorbance-based, actives from ultra-high-throughput screening (AID 540297); format: functional
T5 sequence (Q9GZU7 whole entry): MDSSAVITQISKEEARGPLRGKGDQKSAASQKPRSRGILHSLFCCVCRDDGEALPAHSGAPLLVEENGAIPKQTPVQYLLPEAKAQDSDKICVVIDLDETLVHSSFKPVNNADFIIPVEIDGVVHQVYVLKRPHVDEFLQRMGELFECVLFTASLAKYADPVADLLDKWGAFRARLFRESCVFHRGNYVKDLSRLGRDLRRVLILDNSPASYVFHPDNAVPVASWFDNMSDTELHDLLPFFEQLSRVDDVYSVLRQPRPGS

T1 sequence (P49327 whole entry, the tested form may be a part): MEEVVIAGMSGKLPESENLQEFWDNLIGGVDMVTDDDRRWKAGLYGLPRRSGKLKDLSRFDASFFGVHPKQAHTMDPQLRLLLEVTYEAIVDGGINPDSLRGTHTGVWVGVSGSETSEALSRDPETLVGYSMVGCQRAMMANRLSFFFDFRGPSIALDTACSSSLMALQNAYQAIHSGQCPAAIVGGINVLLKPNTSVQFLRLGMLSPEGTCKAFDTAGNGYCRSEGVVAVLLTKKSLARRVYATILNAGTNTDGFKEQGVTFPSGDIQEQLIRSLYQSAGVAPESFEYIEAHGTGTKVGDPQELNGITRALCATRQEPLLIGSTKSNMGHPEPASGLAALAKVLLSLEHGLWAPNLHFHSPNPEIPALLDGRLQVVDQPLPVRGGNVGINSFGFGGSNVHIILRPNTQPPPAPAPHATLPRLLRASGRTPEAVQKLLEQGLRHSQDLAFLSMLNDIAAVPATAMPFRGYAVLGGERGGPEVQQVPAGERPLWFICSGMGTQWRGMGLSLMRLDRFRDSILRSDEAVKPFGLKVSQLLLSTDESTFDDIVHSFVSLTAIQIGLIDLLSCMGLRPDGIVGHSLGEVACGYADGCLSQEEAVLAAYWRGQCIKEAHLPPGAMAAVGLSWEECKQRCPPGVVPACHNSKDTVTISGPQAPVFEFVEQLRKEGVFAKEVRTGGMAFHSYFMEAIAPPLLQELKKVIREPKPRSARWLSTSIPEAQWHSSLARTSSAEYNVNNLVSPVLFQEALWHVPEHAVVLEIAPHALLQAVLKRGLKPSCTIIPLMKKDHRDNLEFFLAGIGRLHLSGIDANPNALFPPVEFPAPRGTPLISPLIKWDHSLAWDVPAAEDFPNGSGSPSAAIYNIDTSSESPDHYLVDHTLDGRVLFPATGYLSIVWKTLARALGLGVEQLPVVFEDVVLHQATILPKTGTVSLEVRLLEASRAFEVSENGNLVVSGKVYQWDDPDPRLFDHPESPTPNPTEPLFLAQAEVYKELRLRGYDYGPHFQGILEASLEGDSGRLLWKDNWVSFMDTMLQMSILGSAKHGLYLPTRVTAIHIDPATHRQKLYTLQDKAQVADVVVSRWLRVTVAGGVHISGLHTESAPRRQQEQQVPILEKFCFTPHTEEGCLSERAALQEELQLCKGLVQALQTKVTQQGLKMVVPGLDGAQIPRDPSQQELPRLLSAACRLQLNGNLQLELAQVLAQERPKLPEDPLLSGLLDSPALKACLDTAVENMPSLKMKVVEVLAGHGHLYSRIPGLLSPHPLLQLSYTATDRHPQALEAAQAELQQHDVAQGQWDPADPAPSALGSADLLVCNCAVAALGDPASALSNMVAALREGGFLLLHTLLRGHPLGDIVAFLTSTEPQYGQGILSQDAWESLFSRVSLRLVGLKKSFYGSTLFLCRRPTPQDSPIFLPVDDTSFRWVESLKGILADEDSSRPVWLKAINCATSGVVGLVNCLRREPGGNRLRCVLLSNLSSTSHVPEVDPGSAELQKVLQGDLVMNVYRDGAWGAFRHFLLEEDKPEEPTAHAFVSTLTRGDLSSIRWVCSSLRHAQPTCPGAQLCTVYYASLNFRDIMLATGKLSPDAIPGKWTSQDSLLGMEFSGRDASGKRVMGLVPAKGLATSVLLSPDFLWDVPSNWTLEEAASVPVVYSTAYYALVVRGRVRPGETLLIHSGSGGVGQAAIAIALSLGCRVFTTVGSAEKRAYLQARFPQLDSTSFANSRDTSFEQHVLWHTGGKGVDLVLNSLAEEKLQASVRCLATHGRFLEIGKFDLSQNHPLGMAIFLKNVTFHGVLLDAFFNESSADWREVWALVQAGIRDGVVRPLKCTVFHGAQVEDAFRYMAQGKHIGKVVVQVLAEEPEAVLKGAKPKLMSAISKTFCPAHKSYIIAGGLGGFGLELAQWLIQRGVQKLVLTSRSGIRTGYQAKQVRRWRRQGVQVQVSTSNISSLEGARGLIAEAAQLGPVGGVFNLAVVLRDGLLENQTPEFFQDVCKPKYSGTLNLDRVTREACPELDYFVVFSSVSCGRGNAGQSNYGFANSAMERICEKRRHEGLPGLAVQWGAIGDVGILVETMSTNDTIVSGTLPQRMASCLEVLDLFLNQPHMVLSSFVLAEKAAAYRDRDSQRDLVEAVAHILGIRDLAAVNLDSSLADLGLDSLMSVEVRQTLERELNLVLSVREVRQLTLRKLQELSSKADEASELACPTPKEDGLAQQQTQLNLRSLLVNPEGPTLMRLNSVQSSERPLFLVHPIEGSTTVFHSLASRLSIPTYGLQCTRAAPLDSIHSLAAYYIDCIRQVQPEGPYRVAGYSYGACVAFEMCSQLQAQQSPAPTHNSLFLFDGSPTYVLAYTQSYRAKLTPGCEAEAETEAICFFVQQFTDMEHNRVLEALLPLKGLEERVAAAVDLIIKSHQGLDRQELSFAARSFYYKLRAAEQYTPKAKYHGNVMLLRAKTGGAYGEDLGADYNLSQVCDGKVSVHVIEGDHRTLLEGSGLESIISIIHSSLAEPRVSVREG
T3 sequence (Q79MP6 whole entry): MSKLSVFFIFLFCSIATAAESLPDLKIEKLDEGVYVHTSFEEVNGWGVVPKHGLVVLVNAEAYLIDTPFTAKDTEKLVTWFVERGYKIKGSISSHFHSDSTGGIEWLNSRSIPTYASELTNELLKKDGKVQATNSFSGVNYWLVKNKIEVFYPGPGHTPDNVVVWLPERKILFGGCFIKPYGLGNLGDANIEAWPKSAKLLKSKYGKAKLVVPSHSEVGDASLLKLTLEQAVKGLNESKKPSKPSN
Chain of Tyrosine-protein phosphatase non-receptor type 11 (Q06124 whole entry, the tested form may be a part): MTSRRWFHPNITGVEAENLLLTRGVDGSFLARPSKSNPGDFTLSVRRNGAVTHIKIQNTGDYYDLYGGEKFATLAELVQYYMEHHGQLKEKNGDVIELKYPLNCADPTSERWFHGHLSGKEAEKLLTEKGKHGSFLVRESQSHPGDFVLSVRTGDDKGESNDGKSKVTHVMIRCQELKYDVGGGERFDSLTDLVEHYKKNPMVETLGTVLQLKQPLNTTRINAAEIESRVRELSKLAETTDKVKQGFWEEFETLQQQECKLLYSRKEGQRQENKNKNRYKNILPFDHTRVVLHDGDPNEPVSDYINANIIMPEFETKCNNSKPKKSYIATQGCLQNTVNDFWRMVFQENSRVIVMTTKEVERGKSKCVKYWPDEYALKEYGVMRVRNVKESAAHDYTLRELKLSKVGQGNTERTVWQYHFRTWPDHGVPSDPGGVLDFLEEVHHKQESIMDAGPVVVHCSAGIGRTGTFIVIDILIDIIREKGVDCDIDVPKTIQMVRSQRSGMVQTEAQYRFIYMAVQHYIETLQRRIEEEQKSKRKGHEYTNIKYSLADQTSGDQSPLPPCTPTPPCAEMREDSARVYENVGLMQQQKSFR
Chain of Albumin (P02769 whole entry): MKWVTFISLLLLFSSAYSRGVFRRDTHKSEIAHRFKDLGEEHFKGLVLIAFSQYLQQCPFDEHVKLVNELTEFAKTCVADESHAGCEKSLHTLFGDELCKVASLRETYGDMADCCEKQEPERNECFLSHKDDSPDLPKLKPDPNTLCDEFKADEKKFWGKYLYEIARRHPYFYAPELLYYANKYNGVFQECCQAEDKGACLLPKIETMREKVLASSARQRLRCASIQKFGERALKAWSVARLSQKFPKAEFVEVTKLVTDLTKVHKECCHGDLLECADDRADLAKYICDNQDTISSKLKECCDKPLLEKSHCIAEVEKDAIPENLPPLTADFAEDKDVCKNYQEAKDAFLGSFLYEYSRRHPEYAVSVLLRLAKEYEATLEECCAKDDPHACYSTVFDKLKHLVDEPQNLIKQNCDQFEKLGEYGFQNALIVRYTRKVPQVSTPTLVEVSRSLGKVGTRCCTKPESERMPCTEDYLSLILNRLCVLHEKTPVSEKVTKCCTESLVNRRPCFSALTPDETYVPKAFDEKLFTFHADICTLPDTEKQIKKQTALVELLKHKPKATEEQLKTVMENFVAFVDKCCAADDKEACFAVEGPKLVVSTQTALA
Chain of Paired box protein Pax-8 (Q06710 whole entry): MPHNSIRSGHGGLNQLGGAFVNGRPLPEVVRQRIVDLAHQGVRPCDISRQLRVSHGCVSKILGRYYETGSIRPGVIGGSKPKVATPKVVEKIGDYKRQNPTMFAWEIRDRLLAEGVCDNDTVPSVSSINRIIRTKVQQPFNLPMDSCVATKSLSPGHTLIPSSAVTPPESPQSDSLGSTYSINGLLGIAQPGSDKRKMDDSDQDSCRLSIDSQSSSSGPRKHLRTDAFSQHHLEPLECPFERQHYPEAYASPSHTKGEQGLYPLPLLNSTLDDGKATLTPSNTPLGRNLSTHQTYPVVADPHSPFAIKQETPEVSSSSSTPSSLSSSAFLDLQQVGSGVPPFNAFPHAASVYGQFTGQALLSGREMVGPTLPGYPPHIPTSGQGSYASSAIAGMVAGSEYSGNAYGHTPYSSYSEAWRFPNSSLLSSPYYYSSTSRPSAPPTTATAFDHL
Chain of Tyrosine-protein phosphatase non-receptor type 5 (P54829 whole entry): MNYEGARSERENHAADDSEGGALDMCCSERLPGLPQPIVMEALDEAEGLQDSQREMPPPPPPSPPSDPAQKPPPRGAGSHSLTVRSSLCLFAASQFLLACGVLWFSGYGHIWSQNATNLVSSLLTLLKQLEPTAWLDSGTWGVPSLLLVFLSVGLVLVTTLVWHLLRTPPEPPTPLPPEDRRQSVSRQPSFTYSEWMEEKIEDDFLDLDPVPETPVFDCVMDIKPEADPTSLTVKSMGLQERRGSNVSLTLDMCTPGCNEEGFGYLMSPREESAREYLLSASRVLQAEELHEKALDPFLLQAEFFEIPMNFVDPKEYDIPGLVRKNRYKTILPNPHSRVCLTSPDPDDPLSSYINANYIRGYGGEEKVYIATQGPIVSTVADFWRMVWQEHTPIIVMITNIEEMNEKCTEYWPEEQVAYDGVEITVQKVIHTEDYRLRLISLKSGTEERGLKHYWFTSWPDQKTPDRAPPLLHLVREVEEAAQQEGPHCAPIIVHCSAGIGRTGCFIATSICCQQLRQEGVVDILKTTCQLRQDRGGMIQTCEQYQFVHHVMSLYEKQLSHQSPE

Cc1cccc(N=C(S)NN(Cc2ccccc2)c2ccccc2)c1C
inactive: AC50 [1] > 52 µM

CCOc1ccccc1NC(=O)c1nc(S(=O)(=O)Cc2ccccc2)ncc1Cl
active: IC50 [2] 7.85 µM | AC50 [3] 16.9 µM | IC50 [4] 7.5 µM | EC50 [5] 13.7 µM | AC50 [6] 6.36 µM | EC50 [7] 1.98 µM | AC50 [8] 21.7 µM | AC50 [9] 0.376 µM | AC50 [10] 7.1 µM | EC50 [11] 12.5 µM

CCN(CC)CC(=O)N1CCCC(N2CCN(c3cccc(C(F)(F)F)c3)CC2)C1 (configuration not stated)
active: AC50 [12] 33.4 µM

COc1ccc(-c2n[nH]c(=S)n2-c2ccc3c(c2)OCCO3)cc1OC
inactive: IC50 [13] > 59.6 µM | IC50 [14] > 59.6 µM | IC50 [15] > 59.6 µM

CC(C)C(=O)Nc1ccc(C(=O)NNC(=S)NC(=O)c2ccccc2[N+](=O)[O-])cc1
inactive: IC50 [16] > 94.1 µM

O=C(O)c1ccc2c(c1)C(=O)N(c1cccc(-c3nc4ccccc4s3)c1)C2=O
inactive: IC50 [19] 50 µM | IC50 [20] 35.6 µM
active: IC50 [17] 8.03 µM | IC50 [18] 6.02 µM | IC50 [21] 6.24 µM | IC50 [22] 7.07 µM
